These results are taken from patent US20260131020A1, “IONIZABLE CATIONIC LIPID FOR RNA DELIVERY” (Arcturus Therapeutics, Inc., priority 2016, published 2026).

For series [1], the system named is mouse epo mRNA. The experiment in a line: In vivo EPO mRNA stability: epo mRNA levels after injection of lipid encapsulated mouse epo mRNA. Also on record: species or system Female Balb/c mice. As to conditions: nanoparticles with the cationic lipid, i.v. tail vein, 0.03 and 0.1 mg/kg mRNA, blood at 6 hours; FIG. 14. Here is the method:
Levels of mRNA in plasma were measured and compared following injection of nanoparticles comprising different cationic lipids. Female Balb/c mice (6-8 week old) were used for evaluation of plasma erythropoietin (epo) levels in vivo following injection of lipid encapsulated mouse epo mRNA. All formulations were administered intravenously via tail vein injection at a dose of 0.03 and 0.1 mg/kg at a dosing volume of 5 ml/kg. Terminal blood collection was performed via cardiac puncture under 2% isoflurane at 6 hours after formulation injections. Blood was collected into 0.109 M citrate buffer tube and processed by centrifugation at 5000 rpm for 10 minutes. Serum was collected and epo mRNA levels were analyzed. Results are shown at FIG. 14.

Series [2] can be described thus: Titration of lipids to measure pKa. The series is classed as physicochemical. As to conditions: lipids titrated. The source says: The lipids were titrated to measure their pKa values.
For series [3], the system named is Factor VII. The experiment in a line: In vivo mouse Factor VII siRNA knockdown (chromogenic assay of plasma Factor VII protein). Set-up: species or system Female C57BL/6 mice. As to conditions: Factor VII siRNA formulations, i.v. tail vein, both at 0.03 and 0.1 mg/kg, plasma at 48 hours; FIG. 15. How it is done:
Using a liver-directed in vivo screen of the liposome libraries, a series of compounds were tested that facilitate high levels of siRNA mediated gene silencing in hepatocytes, the cells comprising the liver parenchyma. Factor VII, a blood clotting factor, is a suitable target gene for assaying functional siRNA delivery to liver. Because this factor is produced specifically in hepatocytes, gene silencing indicates successful delivery to parenchyma, as opposed to delivery to the cells of the reticulo-endothelial system (e.g., Kupffer cells). Furthermore, Factor VII is a secreted protein that can be readily measured in serum, obviating the need to euthanize animals. Silencing at the mRNA level can be readily determined by measuring levels of protein. This is because the protein's short half-life (2-5 hour). Compositions with siRNA directed to Factor VII were formulated with ATX-002, ATX-57, and ATX-58, and comparator sample phosphate-buffered saline (PBS). Female C57BL/6 mice (6-8 week old) were used for FVII siRNA knockdown (KD) experiments. […] Plasma was collected and Factor VII protein levels were analyzed by chromogenic assay (Biophen FVII, Aniara Corporation). A standard curve was constructed using samples from PBS-injected mice and relative Factor VII expression was determined by comparing treated groups to untreated PBS control.

Series [4] has as its system epo protein. Nature of the series: In vivo epo protein expression after delivery of lipid encapsulated mouse epo mRNA (epo ELISA). Also on record: species or system Female Balb/c mice. To be noted: mouse epo mRNA nanoparticles, i.v. tail vein, at 0.1 mg/kg (so in the source), serum at 6 hours; FIG. 16. How it is done: Female Balb/c mice (6-8 week old) were used for evaluation of epo protein expression in vivo following delivery of lipid encapsulated mouse epo mRNA. All formulations were administered intravenously via tail vein injection at a dose of 0.03 and 0.1 mg/kg at a dosing volume of 5 mL/kg. Terminal blood collection was performed via cardiac puncture under 2% isoflurane at 6 hours after formulation injections. Blood was collected into 0.109 M citrate buffer tube and processed by centrifugation at 5000 rpm for 10 minutes. Serum was collected and epo protein levels were analyzed by epo ELISA assay (R&D systems). A standard curve was constructed using samples from PBS-injected mice and relative epo expression was determined by comparing treated groups to untreated PBS control.

For the molecule `CCCCCC/C=C\COC(=O)CCCCCN(CCC(=O)OC(CCCCCCC)CCCCCCC)C(=O)SCCN(C)C` [ATX-82], in series [1], the “epo mRNA levels compared with ATX-2” value is “substantial improvement over ATX-2”.
Still for that read-out and setting: in the case of `CCCCCC/C=C\COC(=O)CCCN(CCCC(=O)OC(CCCCCCCC)CCCCCCCC)C(=O)SCCN(C)C` [ATX-87] it was “substantial improvement over ATX-2”.
In turn, `CCCCCC/C=C\COC(=O)CCCN(CCCC(=O)OC(CCCCCCC)CCCCCCC)C(=O)SCCN(C)C` [ATX-81] yielded a pKa in series [2] of 5.9. The “epo mRNA levels compared with ATX-2” value in series [1] is “substantial improvement over ATX-2”.
Regarding `CCCCCC/C=C\COC(=O)CCCN(CCCC(=O)OC(CCCCCC)CCCCCC)C(=O)SCCN(C)C` [ATX-86], the “epo mRNA levels compared with ATX-2” value in series [1] is on record as “substantial improvement over ATX-2”.
On to `CCCCCC/C=C\COC(=O)CCCCCN(CCCC(=O)OC(CCCCCC)CCCCCC)C(=O)SCCN(C)C` [ATX-84], for which, in series [2], the pKa was 6.1. The “epo mRNA levels compared with ATX-2” value in series [1] is given as “substantial improvement over ATX-2”.
Molecule `CCCCCC/C=C\COC(=O)CCCN(CCCC(=O)OC(CCCCCCC)CCCCCCCC)C(=O)SCCN(C)C` (centres unmarked) [ATX-57] registered a pKa in series [2] of 6. In series [1], the “epo mRNA levels compared with ATX-2” value was “substantial improvement over ATX-2”. The “Factor VII knockdown activity compared with ATX-002” value in series [3] is on record as “substantially more effective than ATX-002”. Besides, in series [4], the “epo expression compared with ATX-2” value was “substantially higher amounts”.
In series [2], `CCCCCC/C=C\COC(=O)CCCN(CCCC(=O)OC(CCCCCC)CCCCCCC)C(=O)SCCN(C)C` (centres unmarked) [ATX-58] displayed a pKa of 6.1. Further, the “Factor VII knockdown activity compared with ATX-002” value in series [3] was “substantially more effective than ATX-002”.
Take `CCCCCC/C=C\COC(=O)CCCCCN(CCCC(=O)OC(CCCCCCC)CCCCCCC)C(=O)SCCN(C)C` [ATX-83]: the “epo mRNA levels compared with ATX-2” value in series [1] is “substantial improvement over ATX-2”.
